According to PubChem BioAssay (NCI):
Where “and” joins values, the source holds several entries; their conditions need not be identical. Equal entries are not always repeated.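 A five-concentration, 48-hour dose response in 96-well plates underlies each endpoint, interpolated linearly between surrounding concentrations. GI50 = concentration required for 50% inhibition of growth. TGI is the concentration that stops growth completely.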

system: A549 NSCLC; assay: NCI anticancer screen, dose series, 48 h

Structure (SMILES)	TGI	GI50
COC(=O)C(=O)C(C(C)=O)C(=O)NCc1ccc(OC)c(OC)c1 (stereo unspecified)	> 100 µM	–
COc1ccc(-c2ccc3c(N4CCOC[C@@H]4C)nc(N4CCOC[C@@H]4C)nc3n2)cc1CO	1.78 µM and 0.57 µM	0.0052 µM and 0.0253 µM
Nc1c(-c2ccccc2-c2c(N)[n+]([O-])c3ccccc3[n+]2[O-])[n+]([O-])c2ccccc2[n+]1[O-]	> 100 µM	–
CCOC(=O)NC(=O)c1cn(C(CC)COC(=O)NCCCCCCNC(=O)OCC(CC)n2cc(C(=O)NC(=O)OCC)c(=O)[nH]c2=O)c(=O)[nH]c1=O (stereo unspecified)	> 100 µM	–
COc1ccc(-c2nc(-c3cc(OC)cc(OC)c3)[nH]c2-c2ccc(OC)cc2)cc1	> 100 µM	5.31 µM
COC(=O)c1cc2c(o1)-c1nccc3c1c(nc1ccccc13)C2=O	21.1 µM	4.66 µM
O=C(CC(=O)C1CCOC1=O)C(=O)Nc1cccc(Cl)c1 (stereo unspecified)	> 100 µM	–
CCN1c2ccccc2-c2c3c1cc(C)cc3c1ccccc1[n+]2CC	13.8 µM	–
Cc1cccc(C2=C/C(=C(\SS/C(C(=O)c3ccc(OCC(=O)O)c(Cl)c3Cl)=C3\C=C(c4cccc(C)c4)SS3)C(=O)c3ccc(OCC(=O)O)c(Cl)c3Cl)SS2)c1	> 100 µM	–
CC(=O)N1CCN(c2ccc(OCC3COC(Cn4ccnc4)(c4ccc(Cl)cc4Cl)O3)cc2)CC1 (stereo unspecified)	> 100 µM	–
O=C(Cc1nc2c3c(ccc2[nH]c1=O)C(=O)c1ccccc1C3=O)C(=O)Nc1ccccc1[N+](=O)[O-]	> 100 µM	–
CC1=C(C#N)C(=O)CC(c2ccc(Cl)cc2)N(C)N1 (stereo unspecified)	> 100 µM	–
Nc1nc(-c2ccc(Cl)c([N+](=O)[O-])c2)cs1	> 100 µM	–
COc1cc(/C=C2\[C@H]3c4c(c(OC)c(C)c(OC)c4OC)CC(C(=O)N2Cc2ccccc2)N3C)c(OC)c(C)c1OC	> 100 µM	–
CC1(C)CN=C(NN=C(/C=C/c2ccc(C(F)(F)F)cc2)/C=C/c2ccc(C(F)(F)F)cc2)NC1	2.91 µM	1.36 µM
COc1cc(/C=C\c2cc(OC)c(OC)c(OC)c2)cc(N/C=C\C(=O)c2c[nH]c3ccccc23)c1OC	34.8 µM	14.5 µM
O=C(N/C(=C\c1ccc([N+](=O)[O-])cc1)c1nc2ccccc2[nH]1)c1ccccc1	> 100 µM	–
COC(=O)/C([Se]c1c(C)cc(C)cc1C)=C(/[Se]c1c(C)cc(C)cc1C)C(=O)OC	> 100 µM	–
NC(=O)C(=O)CC(=O)c1ccccc1NC1=CC(=O)C(=O)c2ccccc21	> 100 µM	–
CC1CC(O)C(=O)C(O[C@@H]2C[C@@H]3CC[C@@H]4[C@H](CC[C@]5(C)C(C6=CC(=O)OC6)CC[C@]45O)[C@@]3(C=O)C[C@H]2O)O1 (stereo partly specified)	< 0.0199 µM	–
Cc1cc2c(c(C(N)=O)c1C)-c1ccccc1C2=O	> 100 µM	–
CCCC(=O)C1=C(O)C(Cc2c(O)c(C)c(O)c(C(=O)CCC)c2O)=C(O)C(C)(C)C1=O	> 50 µM	–
COC(=O)/C(=N/O)C(C(=O)C=C(C)C)C(=O)C(=O)Nc1nc2ccc([N+](=O)[O-])cc2s1 (stereo unspecified)	> 100 µM	–
Cc1ccccc1C1=[N+]([O-])c2ccc(Cl)cc2C1=O	34.2 µM	–
Cc1[nH]c2ccccc2c1C1Cc2ccccc2N1C(=O)C#Cc1ccc([N+](=O)[O-])cc1 (stereo unspecified)	> 100 µM	–
CCOC(=O)NC(=O)c1cn(C2CCCCC2)c(=O)[nH]c1=O	> 100 µM	–
Cn1c(=O)nc2n(-c3cc(C(F)(F)F)cc(C(F)(F)F)c3)c3ccccc3nc-2c1=O	> 100 µM	–

system: HS 578T breast; assay: NCI anticancer screen, dose series, 48 h

Structure (SMILES)	TGI	GI50
CCC(C)(O)c1cnc(CC(C)C)c(=O)n1O (stereo unspecified)	> 100 µM	–
COc1cc2c(/C=N\N=C(N)N)c[nH]c2cc1C	40 µM	18500 nM
Cn1cc(-c2csc(-c3cn(CCCCN4CCCCC4)c4ccccc34)n2)c2cccnc21	4.16 µM	1670 nM
O=C1c2ccccc2-c2c1c1ccccc1c(=O)n2CCN1CCNCC1	26.5 µM	3740 nM
COc1ccc(-c2ccc3c(N4CCOC[C@@H]4C)nc(N4CCOC[C@@H]4C)nc3n2)cc1CO	0.0145 µM and 0.0679 µM	1.8 nM and 13.1 nM
COc1ccc(-c2nc(-c3cc(OC)cc(OC)c3)[nH]c2-c2ccc(OC)cc2)cc1	> 100 µM	8330 nM
COC(=O)c1cc2c(o1)-c1nccc3c1c(nc1ccccc13)C2=O	37.1 µM	14200 nM
CC1(C)CN=C(NN=C(/C=C/c2ccc(C(F)(F)F)cc2)/C=C/c2ccc(C(F)(F)F)cc2)NC1	3.64 µM	1560 nM
COc1cc(/C=C\c2cc(OC)c(OC)c(OC)c2)cc(N/C=C\C(=O)c2c[nH]c3ccccc23)c1OC	12.9 µM	2210 nM
CC1CC(O)C(=O)C(O[C@@H]2C[C@@H]3CC[C@@H]4[C@H](CC[C@]5(C)C(C6=CC(=O)OC6)CC[C@]45O)[C@@]3(C=O)C[C@H]2O)O1 (stereo partly specified)	0.214 µM	–
CCCC(=O)C1=C(O)C(Cc2c(O)c(C)c(O)c(C(=O)CCC)c2O)=C(O)C(C)(C)C1=O	> 50 µM	–

system: RPMI-8226 leukemia; assay: NCI anticancer screen, dose series, 48 h

Structure (SMILES)	GI50	TGI [µM]
O=C(O)c1cccc(COc2ccc([N+](=O)[O-])cc2Cl)c1	> 100000 nM	> 100
Nc1ccccc1C(=O)/C=C/c1c(O)ccc2ccccc12	–	> 100
CCC(C)(O)c1cnc(CC(C)C)c(=O)n1O (stereo unspecified)	–	28.5
CCC1CN2CCc3cc(OC)c(OC)cc3C2CC1CC1c2cc(OC)c(OC)cc2CCN1C(=O)C1CCCN1 (stereo unspecified)	–	> 100
CC(C(=O)c1ccc(Cl)cc1)/C(=N/NC(=O)NN)C(=O)Nc1cccc(C(F)(F)F)c1 (stereo unspecified)	–	> 100
COc1cc2c(/C=N\N=C(N)N)c[nH]c2cc1C	14300 nM	27.4
CCOP(=O)(OCC)C(C(=O)OC)C(=O)C(=O)Nc1ccc(Cl)cc1Cl (stereo unspecified)	–	> 100
COc1cccc(/C=N/[N-]C(=O)c2ccncc2)c1[O-].COc1cccc(/C=N/[N-]C(=O)c2ccncc2)c1[O-].[O]=[U](=[O])([OH2+])[OH2+]	4400 nM	48
O=C1c2ccccc2-c2c1c1ccccc1c(=O)n2CCN1CCNCC1	1630 nM	4.43
N#CC(=Nc1ccccc1N(C(=O)c1ccccc1)C(=O)c1ccccc1)c1ccccc1	–	> 81.4
COc1c(C)n(CCO)ccc1=O	–	> 100
COc1ccc(-c2ccc3c(N4CCOC[C@@H]4C)nc(N4CCOC[C@@H]4C)nc3n2)cc1CO	3.63 nM and 28.1 nM	–
Nc1c(-c2ccccc2-c2c(N)[n+]([O-])c3ccccc3[n+]2[O-])[n+]([O-])c2ccccc2[n+]1[O-]	–	63.4
CCOC(=O)NC(=O)c1cn(C(CC)COC(=O)NCCCCCCNC(=O)OCC(CC)n2cc(C(=O)NC(=O)OCC)c(=O)[nH]c2=O)c(=O)[nH]c1=O (stereo unspecified)	–	> 100
COc1ccc(-c2nc(-c3cc(OC)cc(OC)c3)[nH]c2-c2ccc(OC)cc2)cc1	2490 nM	6.96
COC(=O)c1cc2c(o1)-c1nccc3c1c(nc1ccccc13)C2=O	2030 nM	18
O=C(CC(=O)C1CCOC1=O)C(=O)Nc1cccc(Cl)c1 (stereo unspecified)	–	> 100
CCN1c2ccccc2-c2c3c1cc(C)cc3c1ccccc1[n+]2CC	–	2.92
Cc1cccc(C2=C/C(=C(\SS/C(C(=O)c3ccc(OCC(=O)O)c(Cl)c3Cl)=C3\C=C(c4cccc(C)c4)SS3)C(=O)c3ccc(OCC(=O)O)c(Cl)c3Cl)SS2)c1	–	41.4

Structure (SMILES)	GI50	TGI [µM]
CC(=O)N1CCN(c2ccc(OCC3COC(Cn4ccnc4)(c4ccc(Cl)cc4Cl)O3)cc2)CC1 (stereo unspecified)	–	> 100
O=C(Cc1nc2c3c(ccc2[nH]c1=O)C(=O)c1ccccc1C3=O)C(=O)Nc1ccccc1[N+](=O)[O-]	–	41.1
CC1=C(C#N)C(=O)CC(c2ccc(Cl)cc2)N(C)N1 (stereo unspecified)	–	> 100
Nc1nc(-c2ccc(Cl)c([N+](=O)[O-])c2)cs1	–	> 100
COc1cc(/C=C2\[C@H]3c4c(c(OC)c(C)c(OC)c4OC)CC(C(=O)N2Cc2ccccc2)N3C)c(OC)c(C)c1OC	–	61.2
CC1(C)CN=C(NN=C(/C=C/c2ccc(C(F)(F)F)cc2)/C=C/c2ccc(C(F)(F)F)cc2)NC1	466 nM	2.3
COc1cc(/C=C\c2cc(OC)c(OC)c(OC)c2)cc(N/C=C\C(=O)c2c[nH]c3ccccc23)c1OC	627 nM	2.93
O=C(N/C(=C\c1ccc([N+](=O)[O-])cc1)c1nc2ccccc2[nH]1)c1ccccc1	–	> 100
COC(=O)/C([Se]c1c(C)cc(C)cc1C)=C(/[Se]c1c(C)cc(C)cc1C)C(=O)OC	–	> 100
NC(=O)C(=O)CC(=O)c1ccccc1NC1=CC(=O)C(=O)c2ccccc21	–	> 100
CC1CC(O)C(=O)C(O[C@@H]2C[C@@H]3CC[C@@H]4[C@H](CC[C@]5(C)C(C6=CC(=O)OC6)CC[C@]45O)[C@@]3(C=O)C[C@H]2O)O1 (stereo partly specified)	–	0.246
Cc1cc2c(c(C(N)=O)c1C)-c1ccccc1C2=O	–	> 100
CCCC(=O)C1=C(O)C(Cc2c(O)c(C)c(O)c(C(=O)CCC)c2O)=C(O)C(C)(C)C1=O	–	> 50
COC(=O)/C(=N/O)C(C(=O)C=C(C)C)C(=O)C(=O)Nc1nc2ccc([N+](=O)[O-])cc2s1 (stereo unspecified)	–	> 100
Cc1ccccc1C1=[N+]([O-])c2ccc(Cl)cc2C1=O	–	9.37
Cc1[nH]c2ccccc2c1C1Cc2ccccc2N1C(=O)C#Cc1ccc([N+](=O)[O-])cc1 (stereo unspecified)	–	> 100
CCOC(=O)NC(=O)c1cn(C2CCCCC2)c(=O)[nH]c1=O	–	> 100
Cn1c(=O)nc2n(-c3cc(C(F)(F)F)cc(C(F)(F)F)c3)c3ccccc3nc-2c1=O	–	> 100
